Values after ≈ are worked out from the molar mass of the structure shown.
Columns and labels:
Assay type in all cases: functional
Enterococcus faecium [1] = assay: Antibacterial activity against Enterococcus faecium ATCC 49452
Enterococcus faecalis [2] = assay: Antibacterial activity against Enterococcus faecalis ATCC 6569
Staphylococcus aureus [3] = assay: Antibacterial activity against methicillin susceptible staphylococcus aureus ATCC 29213
Staphylococcus aureus [4] = assay: Antibacterial activity against methicillin-resistant staphylococcus aureus ATCC 43300
Enterococcus faecium [5] = assay: Antibacterial activity against Enterococcus faecium ATCC 49452 at 0 % serum
Enterococcus faecium [6] = assay: Antibacterial activity against Enterococcus faecium ATCC 49452 at 10 % serum; settings: ATCC 49452, Serum
Enterococcus faecalis [7] = assay: Antibacterial activity against Enterococcus faecalis ATCC 6569 at 0 % serum
Enterococcus faecalis [8] = assay: Antibacterial activity against Enterococcus faecalis ATCC 6569 at 10 % serum; settings: ATCC 6569, Serum
Staphylococcus aureus [9] = assay: Antibacterial activity against methicillin-resistant staphylococcus aureus ATCC 43300 at 10 % serum
Staphylococcus aureus [10] = assay: Antibacterial activity against methicillin susceptible staphylococcus aureus ATCC 29213 at 0 % serum
Staphylococcus aureus [11] = assay: Antibacterial activity against methicillin susceptible staphylococcus aureus ATCC 29213 at 10 % serum
Staphylococcus aureus [12] = assay: Antibacterial activity against methicillin-resistant staphylococcus aureus ATCC 43300 at 0 % serum

`CCCCCCCCCC(=O)N[C@@H](Cc1c[nH]c2ccccc12)C(=O)N[C@H](CC(N)=O)C(=O)N[C@@H](CCO)C(=O)N[C@@H]1C(=O)NCC(=O)N[C@@H](CCCNC(=O)c2ccccc2)C(=O)N[C@@H](CC(=O)O)C(=O)N[C@H](C)C(=O)N[C@@H](CC(=O)O)C(=O)NCC(=O)N[C@H](CO)C(=O)N[C@@H]([C@H](C)CC(=O)O)C(=O)N[C@@H](CC(=O)c2ccccc2N)C(=O)O[C@@H]1C` was tested, and the MIC (Enterococcus faecium [1]) was 25 µg/mL (≈ 14.6 µM), the MIC (Enterococcus faecalis [2]) was 25 µg/mL (≈ 14.6 µM) and the MIC (Staphylococcus aureus [3]) was 12.5 µg/mL (≈ 7.31 µM). The MIC (Staphylococcus aureus [4]) was 6.25 µg/mL (≈ 3.65 µM).

`CCCCCCCCCC(=O)N[C@@H](Cc1c[nH]c2ccccc12)C(=O)N[C@H](CC(N)=O)C(=O)N[C@@H](CCO)C(=O)N[C@@H]1C(=O)NCC(=O)N[C@@H](CCCNCc2ccc(S(=O)(=O)NCc3ccc(C(F)(F)F)cc3)cc2)C(=O)N[C@@H](CC(=O)O)C(=O)N[C@H](C)C(=O)N[C@@H](CC(=O)O)C(=O)NCC(=O)N[C@H](CO)C(=O)N[C@@H]([C@H](C)CC(=O)O)C(=O)N[C@@H](CC(=O)c2ccccc2N)C(=O)O[C@@H]1C` showed an MIC (Enterococcus faecium [5]) of 0.39 µg/mL (≈ 0.202 µM), an MIC (Enterococcus faecium [6]) of 6.25 µg/mL (≈ 3.23 µM) and an MIC (Enterococcus faecalis [7]) of 0.78 µg/mL (≈ 0.403 µM). It also gave an MIC (Enterococcus faecalis [8]) of 6.25 µg/mL (≈ 3.23 µM), an MIC (Staphylococcus aureus [9]) of 0.78 µg/mL (≈ 0.403 µM) and an MIC (Staphylococcus aureus [10]) of 0.78 µg/mL (≈ 0.403 µM). The MIC (Staphylococcus aureus [11]) was 3.13 µg/mL (≈ 1.62 µM) and the MIC (Staphylococcus aureus [12]) was 0.39 µg/mL (≈ 0.202 µM).

Molecule `CCCCCCCCCC(=O)N[C@@H](Cc1c[nH]c2ccccc12)C(=O)N[C@H](CC(N)=O)C(=O)N[C@@H](CCO)C(=O)N[C@@H]1C(=O)NCC(=O)N[C@@H](CCCNCc2ccc(OCc3ccccc3)c(Cl)c2)C(=O)N[C@@H](CC(=O)O)C(=O)N[C@H](C)C(=O)N[C@@H](CC(=O)O)C(=O)NCC(=O)N[C@H](CO)C(=O)N[C@@H]([C@H](C)CC(=O)O)C(=O)N[C@@H](CC(=O)c2ccccc2N)C(=O)O[C@@H]1C` has an MIC (Enterococcus faecium [5]) of 0.39 µg/mL (≈ 0.212 µM), an MIC (Enterococcus faecium [6]) of 25 µg/mL (≈ 13.6 µM) and an MIC (Enterococcus faecalis [7]) of 0.78 µg/mL (≈ 0.425 µM). It also gave an MIC (Enterococcus faecalis [8]) of 12.5 µg/mL (≈ 6.8 µM), an MIC (Staphylococcus aureus [9]) of 3.13 µg/mL (≈ 1.7 µM) and an MIC (Staphylococcus aureus [10]) of 0.78 µg/mL (≈ 0.425 µM). It also gave an MIC (Staphylococcus aureus [11]) of 3.13 µg/mL (≈ 1.7 µM) and an MIC (Staphylococcus aureus [12]) of 0.78 µg/mL (≈ 0.425 µM).

With `CCCCCCCCCC(=O)N[C@@H](Cc1c[nH]c2ccccc12)C(=O)N[C@H](CC(N)=O)C(=O)N[C@@H](CCO)C(=O)N[C@@H]1C(=O)NCC(=O)N[C@@H](CCCNCc2ccc(F)cc2F)C(=O)N[C@@H](CC(=O)O)C(=O)N[C@H](C)C(=O)N[C@@H](CC(=O)O)C(=O)NCC(=O)N[C@H](CO)C(=O)N[C@@H]([C@H](C)CC(=O)O)C(=O)N[C@@H](CC(=O)c2ccccc2N)C(=O)O[C@@H]1C` the MIC (Enterococcus faecium [5]) was 6.25 µg/mL (≈ 3.61 µM), the MIC (Enterococcus faecium [6]) was 25 µg/mL (≈ 14.4 µM) and the MIC (Enterococcus faecalis [7]) was 6.25 µg/mL (≈ 3.61 µM). The MIC (Enterococcus faecalis [8]) was 12.5 µg/mL (≈ 7.21 µM), the MIC (Staphylococcus aureus [9]) was 0.78 µg/mL (≈ 0.45 µM) and the MIC (Staphylococcus aureus [10]) was 1.56 µg/mL (≈ 0.9 µM). The MIC (Staphylococcus aureus [11]) was 3.13 µg/mL (≈ 1.81 µM) and the MIC (Staphylococcus aureus [12]) was 0.78 µg/mL (≈ 0.45 µM).

Work on `CCCCCCCCCC(=O)N[C@@H](Cc1c[nH]c2ccccc12)C(=O)N[C@H](CC(N)=O)C(=O)N[C@@H](CCO)C(=O)N[C@@H]1C(=O)NCC(=O)N[C@@H](CCCNCc2cccc(F)c2)C(=O)N[C@@H](CC(=O)O)C(=O)N[C@H](C)C(=O)N[C@@H](CC(=O)O)C(=O)NCC(=O)N[C@H](CO)C(=O)N[C@@H]([C@H](C)CC(=O)O)C(=O)N[C@@H](CC(=O)c2ccccc2N)C(=O)O[C@@H]1C` yielded an MIC (Enterococcus faecium [5]) of 12.5 µg/mL (≈ 7.29 µM), an MIC (Enterococcus faecium [6]) of 12.5 µg/mL (≈ 7.29 µM) and an MIC (Enterococcus faecalis [7]) of 6.25 µg/mL (≈ 3.64 µM). It also gave an MIC (Enterococcus faecalis [8]) of 12.5 µg/mL (≈ 7.29 µM), an MIC (Staphylococcus aureus [9]) of 0.56 µg/mL (≈ 0.327 µM) and an MIC (Staphylococcus aureus [10]) of 0.78 µg/mL (≈ 0.455 µM). The MIC (Staphylococcus aureus [11]) was 1.56 µg/mL (≈ 0.91 µM) and the MIC (Staphylococcus aureus [12]) was 0.78 µg/mL (≈ 0.455 µM).

`CCCCCCCCCC(=O)N[C@@H](Cc1c[nH]c2ccccc12)C(=O)N[C@H](CC(N)=O)C(=O)N[C@@H](CCO)C(=O)N[C@@H]1C(=O)NCC(=O)N[C@@H](CCCNCc2ccc(OCc3ccc(F)cc3)c([N+](=O)[O-])c2)C(=O)N[C@@H](CC(=O)O)C(=O)N[C@H](C)C(=O)N[C@@H](CC(=O)O)C(=O)NCC(=O)N[C@H](CO)C(=O)N[C@@H]([C@H](C)CC(=O)O)C(=O)N[C@@H](CC(=O)c2ccccc2N)C(=O)O[C@@H]1C` showed an MIC (Enterococcus faecium [5]) of 1.56 µg/mL (≈ 0.836 µM), an MIC (Enterococcus faecium [6]) of 25 µg/mL (≈ 13.4 µM) and an MIC (Enterococcus faecalis [7]) of 0.78 µg/mL (≈ 0.418 µM). It also gave an MIC (Enterococcus faecalis [8]) of 12.5 µg/mL (≈ 6.7 µM), an MIC (Staphylococcus aureus [9]) of 3.13 µg/mL (≈ 1.68 µM) and an MIC (Staphylococcus aureus [10]) of 0.78 µg/mL (≈ 0.418 µM). It also gave an MIC (Staphylococcus aureus [11]) of 6.25 µg/mL (≈ 3.35 µM) and an MIC (Staphylococcus aureus [12]) of 0.39 µg/mL (≈ 0.209 µM).

For `CCCCCCCCCC(=O)N[C@@H](Cc1c[nH]c2ccccc12)C(=O)N[C@H](CC(N)=O)C(=O)N[C@@H](CCO)C(=O)N[C@@H]1C(=O)NCC(=O)N[C@@H](CCCNCc2ccc(C#N)cc2)C(=O)N[C@@H](CC(=O)O)C(=O)N[C@H](C)C(=O)N[C@@H](CC(=O)O)C(=O)NCC(=O)N[C@H](CO)C(=O)N[C@@H]([C@H](C)CC(=O)O)C(=O)N[C@@H](CC(=O)c2ccccc2N)C(=O)O[C@@H]1C`, the MIC (Enterococcus faecium [5]) was 6.25 µg/mL (≈ 3.63 µM), the MIC (Enterococcus faecium [6]) was 12.5 µg/mL (≈ 7.26 µM) and the MIC (Enterococcus faecalis [7]) was 6.25 µg/mL (≈ 3.63 µM). It also gave an MIC (Enterococcus faecalis [8]) of 6.25 µg/mL (≈ 3.63 µM), an MIC (Staphylococcus aureus [9]) of 0.78 µg/mL (≈ 0.453 µM) and an MIC (Staphylococcus aureus [10]) of 0.78 µg/mL (≈ 0.453 µM). It also gave an MIC (Staphylococcus aureus [11]) of 0.78 µg/mL (≈ 0.453 µM) and an MIC (Staphylococcus aureus [12]) of 0.78 µg/mL (≈ 0.453 µM).
